Experimental data as given in patent publication US20250186408A1, “TREATMENT OF PHARMACORESISTANT EPILEPSY” (Katholieke Universiteit Leuven, priority 2021, published 2025).
pEC50, pIC50: −log10 of the molar value. Like-named read-outs stand apart in the source and are kept apart here.

Tests used:
ADRB2 = ADRB2 (Homo sapiens, UniProt P07550); test: cAMP ADRB2 Antagonist; format: cell-based; settings: for Emax: read-out: Max response
Method: cAMP Hunter cell lines were expanded from freezer stocks. […] For Gi agonist determination, cells were incubated with sample in the presence of EC80 forskolin to induce response. For both conditions, media was aspirated from cells and replaced with 15 μL 2:1 HBSS/10 mM HEPES:cAMP XS+ Ab reagent. […] 5 μL of 4× sample was added to cells and incubated at 37° C. or room temperature (RT) for 30 or 60 min. Final assay vehicle concentration was 1%. […] Media was aspirated from cells and replaced with 10 μL 1:1 HBSS/HEPES:cAMP XS+ Ab reagent. […] For Gi coupled GPCRs, EC80 forskolin was included. […] Compound activity was analyzed using CBIS data analysis suite (ChemInnovation, CA).

CHRM1 = target: T1, CHRM1 (Homo sapiens, UniProt P11229); test: Calcium Flux CHRM1 Agonist; settings: for Emax: read-out: Max response
T1 sequence (P11229 1-460): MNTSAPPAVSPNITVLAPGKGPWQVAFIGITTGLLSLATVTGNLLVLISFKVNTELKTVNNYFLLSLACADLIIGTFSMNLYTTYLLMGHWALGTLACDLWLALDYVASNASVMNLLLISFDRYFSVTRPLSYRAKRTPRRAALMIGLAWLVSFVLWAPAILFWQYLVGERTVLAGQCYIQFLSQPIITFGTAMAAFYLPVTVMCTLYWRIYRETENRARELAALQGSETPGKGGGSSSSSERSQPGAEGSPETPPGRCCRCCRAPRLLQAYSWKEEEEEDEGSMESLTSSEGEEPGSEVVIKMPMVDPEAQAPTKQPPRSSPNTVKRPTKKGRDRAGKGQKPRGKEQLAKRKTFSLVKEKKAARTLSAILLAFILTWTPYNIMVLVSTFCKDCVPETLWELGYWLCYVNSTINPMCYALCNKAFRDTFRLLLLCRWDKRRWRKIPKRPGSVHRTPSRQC
Method: (§1) In vitro pharmacological profiling of compounds was done against 78 functional assays for 47 common off-targets (30) by Eurofins DiscoverX Corporation (Fremont, CA, USA) using their SAFETYscan E/IC50 ELECT service (Cat Ref 87-1003DR, Safety47 Panel Dose Response). […] Compounds were tested in a range of 10 concentrations, following a 3-fold serial dilution, starting from 10 μM. The assays were performed utilizing the PathHunter enzyme fragment complementation (EFC) technology, FLIPR®-based cellular screening assays, and KINOMEscan kinase binding assays.
(§2) Prior to testing, cells (10,000 cells/well) were expanded from freezer stocks and seeded into a total volume of 50 μL into black walled, clear-bottom, Poly-D-lysine coated 384-well microplates and incubated at 37° C. […] Assays were performed in 1× dye loading buffer consisting of 1× Dye (DiscoverX, Calcium No Wash^PLUS kit, Catalog No. 90-0091), 1× Additive A and 2.5 mM Probenecid in HBSS/20 mM HEPES. Probenecid was prepared fresh. Prior to testing, media was aspirated from cells and replaced with 25 μL dye loading buffer. Cells were incubated for 45 min at 37° C. and then 20 min at RT. For agonist determination, 25 μL of 2× compound in HBSS/20 mM HEPES was added using a FLIPR Tetra (MDS). For antagonist determination, cells were pre-incubated with sample followed by agonist challenge at the EC80 concentration. 25 μL of 2× sample was added and cells were incubated for 30 min at RT in the dark to equilibrate plate temperature. After incubation, antagonist determination was initiated by addition of 25 μL of 1× compound with 3×EC80 agonist using FLIPR. For both agonist and antagonist formats, activity was measure on a FLIPR Tetra (MDS). Calcium mobilization was monitored for 2 min with a 5 sec baseline read.
(§3) FLIPR read—Area under the curve, was calculated for the entire 2 min read. Compound activity was analysed using CBIS data analysis suite (ChemInnovation, CA).

HTR1B = HTR1B (Homo sapiens, UniProt P28222); test: cAMP HTR1B Antagonist; settings: for Emax: read-out: Max response
Sequence of HTR1B (P28222 whole entry): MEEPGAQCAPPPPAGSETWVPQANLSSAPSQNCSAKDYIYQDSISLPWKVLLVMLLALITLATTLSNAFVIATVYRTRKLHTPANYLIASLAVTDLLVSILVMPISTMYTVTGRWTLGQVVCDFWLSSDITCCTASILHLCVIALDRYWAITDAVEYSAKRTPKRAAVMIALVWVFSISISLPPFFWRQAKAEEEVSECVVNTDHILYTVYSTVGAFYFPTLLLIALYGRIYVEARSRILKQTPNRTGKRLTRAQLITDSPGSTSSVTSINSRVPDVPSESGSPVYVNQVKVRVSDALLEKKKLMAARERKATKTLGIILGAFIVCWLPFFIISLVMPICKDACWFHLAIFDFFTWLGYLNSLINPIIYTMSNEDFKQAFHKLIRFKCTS
Method: In vitro pharmacological profiling of compounds was done against 78 functional assays for 47 common off-targets (30) by Eurofins DiscoverX Corporation (Fremont, CA, USA) using their SAFETYscan E/IC50 ELECT service (Cat Ref 87-1003DR, Safety47 Panel Dose Response). […] Compounds were tested in a range of 10 concentrations, following a 3-fold serial dilution, starting from 10 μM.
(§4) cAMP Hunter cell lines were expanded from freezer stocks. Prior to testing, cells were seeded in a total volume of 20 μL into white walled 384-well microplates and incubated at 37° C. cAMP modulation was determined using the DiscoverX HitHunter cAMP XS+ assay. For Gs agonist determination, cells were incubated with sample to induce response. For Gi agonist determination, cells were incubated with sample in the presence of EC80 forskolin to induce response. For both conditions, media was aspirated from cells and replaced with 15 μL 2:1 HBSS/10 mM HEPES:cAMP XS+ Ab reagent. Intermediate dilution of sample stocks was performed to generate 4× sample in assay buffer (containing 4×EC80 forskolin in the case of antagonist determination). 5 μL of 4× sample was added to cells and incubated at 37° C. or room temperature (RT) for 30 or 60 min. Final assay vehicle concentration was 1%. For antagonist determination, cells were pre-incubated with sample followed by agonist challenge at the EC80 concentration. Media was aspirated from cells and replaced with 10 μL 1:1 HBSS/HEPES:cAMP XS+ Ab reagent. 5 μL of 4× compound was added to the cells and incubated at 37° C. or RT for 30 min. 5 μL of 4×EC80 agonist was added to the cells and incubated at 37° C. or RT for 30 or 60 min. For Gi coupled GPCRs, EC80 forskolin was included. […] Microplates were read following signal generation with a PerkinElmer Envision™ instrument for chemiluminescent signal detection. Compound activity was analyzed using CBIS data analysis suite (ChemInnovation, CA).

EDNRA = target: T2, EDNRA (Homo sapiens, UniProt P25101); test: Calcium Flux EDNRA Antagonist; format: cell-based; settings: for pIC50: read-out: RC50, result type IC50; for Emax: read-out: Max response
T2 sequence (P25101 21-427): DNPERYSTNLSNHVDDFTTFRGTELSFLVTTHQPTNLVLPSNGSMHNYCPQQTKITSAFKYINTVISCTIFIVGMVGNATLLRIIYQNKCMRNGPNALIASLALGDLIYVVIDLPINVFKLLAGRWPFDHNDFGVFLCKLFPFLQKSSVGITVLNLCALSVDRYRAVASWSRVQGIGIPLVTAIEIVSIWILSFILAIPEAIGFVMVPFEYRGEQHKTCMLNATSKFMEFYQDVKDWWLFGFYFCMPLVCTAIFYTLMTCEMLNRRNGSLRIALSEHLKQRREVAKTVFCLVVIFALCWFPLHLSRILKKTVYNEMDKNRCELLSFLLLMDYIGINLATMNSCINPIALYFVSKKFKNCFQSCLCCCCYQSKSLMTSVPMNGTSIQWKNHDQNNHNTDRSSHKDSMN
Method: (≤0.2% DMSO concentration). Assays were performed in 1× dye loading buffer consisting of 1× Dye (DiscoverX, Calcium No Wash^PLUS kit, Catalog No. 90-0091), 1× Additive A and 2.5 mM Probenecid in HBSS/20 mM HEPES. Probenecid was prepared fresh. Prior to testing, media was aspirated from cells and replaced with 25 μL dye loading buffer. Cells were incubated for 45 min at 37° C. and then 20 min at RT. For agonist determination, 25 μL of 2× compound in HBSS/20 mM HEPES was added using a FLIPR Tetra (MDS). […] 25 μL of 2× sample was added and cells were incubated for 30 min at RT in the dark to equilibrate plate temperature. After incubation, antagonist determination was initiated by addition of 25 μL of 1× compound with 3×EC80 agonist using FLIPR. For both agonist and antagonist formats, activity was measure on a FLIPR Tetra (MDS). Calcium mobilization was monitored for 2 min with a 5 sec baseline read.
FLIPR read—Area under the curve, was calculated for the entire 2 min read.

CHRM3 = CHRM3 (Homo sapiens, UniProt P20309); test: Calcium Flux CHRM3 Antagonist; settings: for Emax: read-out: Max response
Sequence of CHRM3 (P20309 whole entry): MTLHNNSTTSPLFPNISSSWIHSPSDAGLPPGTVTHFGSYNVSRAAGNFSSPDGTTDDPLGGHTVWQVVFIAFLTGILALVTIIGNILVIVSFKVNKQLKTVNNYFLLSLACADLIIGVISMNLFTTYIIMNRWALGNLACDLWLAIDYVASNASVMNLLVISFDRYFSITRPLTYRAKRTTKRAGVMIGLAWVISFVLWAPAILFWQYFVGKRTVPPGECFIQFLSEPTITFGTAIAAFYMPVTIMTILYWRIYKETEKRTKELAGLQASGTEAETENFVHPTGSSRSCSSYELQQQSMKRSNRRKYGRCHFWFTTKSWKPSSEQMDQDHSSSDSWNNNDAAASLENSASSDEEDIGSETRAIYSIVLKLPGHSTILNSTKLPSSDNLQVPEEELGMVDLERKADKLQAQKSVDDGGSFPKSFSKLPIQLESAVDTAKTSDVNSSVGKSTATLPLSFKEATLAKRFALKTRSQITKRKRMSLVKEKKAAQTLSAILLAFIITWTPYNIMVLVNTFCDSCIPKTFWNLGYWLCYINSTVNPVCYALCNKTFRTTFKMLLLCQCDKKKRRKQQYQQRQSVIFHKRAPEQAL
Method: as §1, §2, §3

CNR1 = CNR1 (Homo sapiens, UniProt P21554); test: cAMP CNR1 Agonist; settings: for Emax: read-out: Max response
Sequence of CNR1 (P21554 whole entry): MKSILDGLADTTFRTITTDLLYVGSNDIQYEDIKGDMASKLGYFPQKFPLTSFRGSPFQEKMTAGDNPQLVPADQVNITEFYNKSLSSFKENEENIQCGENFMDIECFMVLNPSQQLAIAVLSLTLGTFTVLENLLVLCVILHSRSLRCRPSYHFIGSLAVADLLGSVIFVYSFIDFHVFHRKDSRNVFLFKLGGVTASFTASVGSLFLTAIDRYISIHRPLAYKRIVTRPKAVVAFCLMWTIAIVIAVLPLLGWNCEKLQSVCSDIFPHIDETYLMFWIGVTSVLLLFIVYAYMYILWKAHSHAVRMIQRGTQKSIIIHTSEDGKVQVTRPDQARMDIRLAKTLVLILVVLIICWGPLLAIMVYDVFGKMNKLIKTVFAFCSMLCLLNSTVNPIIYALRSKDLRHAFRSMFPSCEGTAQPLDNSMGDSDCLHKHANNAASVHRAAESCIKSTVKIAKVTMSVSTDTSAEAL
Method: as §1, §4

HTR3A = target: T3, HTR3A (Homo sapiens, UniProt P46098); test: Ion Channel HTR3A Blocker; format: cell-based; settings: for Emax: Ion Channel HTR3A Blocker, read-out: Max response
T3 sequence (P46098 24-478): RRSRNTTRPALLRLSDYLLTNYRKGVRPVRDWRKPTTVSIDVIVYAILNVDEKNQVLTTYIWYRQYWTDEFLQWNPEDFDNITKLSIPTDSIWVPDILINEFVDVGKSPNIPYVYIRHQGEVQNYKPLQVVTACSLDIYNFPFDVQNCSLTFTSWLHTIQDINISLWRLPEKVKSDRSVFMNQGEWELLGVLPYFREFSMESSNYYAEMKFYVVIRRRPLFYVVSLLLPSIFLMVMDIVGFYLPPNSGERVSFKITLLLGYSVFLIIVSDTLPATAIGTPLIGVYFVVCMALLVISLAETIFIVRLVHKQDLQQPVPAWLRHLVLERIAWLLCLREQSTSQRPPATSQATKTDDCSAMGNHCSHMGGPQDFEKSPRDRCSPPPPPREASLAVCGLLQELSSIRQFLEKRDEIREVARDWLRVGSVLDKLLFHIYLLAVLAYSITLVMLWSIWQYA

Sequence of ADRB2 (P07550 whole entry): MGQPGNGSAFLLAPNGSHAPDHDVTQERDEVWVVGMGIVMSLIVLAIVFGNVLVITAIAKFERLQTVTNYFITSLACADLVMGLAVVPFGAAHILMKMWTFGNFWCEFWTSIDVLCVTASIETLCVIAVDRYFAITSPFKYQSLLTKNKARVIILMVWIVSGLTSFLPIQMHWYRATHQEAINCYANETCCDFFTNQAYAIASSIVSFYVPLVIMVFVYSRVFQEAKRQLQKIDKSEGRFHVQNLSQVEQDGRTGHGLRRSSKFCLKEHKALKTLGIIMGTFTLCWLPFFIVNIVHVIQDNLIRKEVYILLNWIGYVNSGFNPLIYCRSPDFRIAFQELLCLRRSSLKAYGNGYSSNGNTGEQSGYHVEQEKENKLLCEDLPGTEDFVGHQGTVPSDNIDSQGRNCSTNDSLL

Row | Structure (SMILES) | pIC50 (ADRB2) | Emax (ADRB2) [%] | pEC50 (CHRM1) | Emax (CHRM1) [%] | pIC50 (HTR1B) | Emax (HTR1B) [%] | pIC50 (EDNRA; Calcium Flux EDNRA Antagonist) | Emax (EDNRA) [%] | pIC50 (CHRM3) | Emax (CHRM3) [%] | pEC50 (CNR1) | Emax (CNR1) [%] | pIC50 (HTR3A) | Emax (HTR3A) [%] | Emax (ADRB2; cAMP ADRB2 Antagonist) [%] | pIC50 (ADRB2; cAMP ADRB2 Antagonist, read-out: RC50, result type IC50) | Emax (EDNRA; Calcium Flux EDNRA Antagonist) [%]
1 | CC(C)(C)c1ccc(C#CC(O)c2ccccc2)cc1 (racemic) [Compound 3.3, rac-3-(4-(tert-butyl)phenyl)-1-phenylprop-2-yn-1-ol] | < 5.00 | 0 | < 5.00 | 1.8 | 5.19 | 66.2 | < 5.00 | 0 | < 5.00 | 0 | < 5.00 | 9.8 | < 5.00 | 50.1 |  |  | 
2 | Clc1cccc(C#Cc2n[nH]c3ncccc23)c1 [Compound 10.1, 3-((3-chlorophenyl)ethynyl)-1H-pyrazolo[3,4-b]pyridine] |  |  | < 5.00 | 1.8 | < 5.00 | 0 | < 5.00 |  | < 5.00 | 0 | < 5.00 | 20.1 | < 5.00 | 19.7 | 39.9 | < 5.00 | 0
